Results published in PMC8018653, “Gender-based differences in brain and plasma pharmacokinetics of letrozole in sprague-dawley rats: Application of physiologically-based pharmacokinetic modeling to gain quantitative insights” (PLoS ONE, 2021).
Values joined by “and” are separate entries in the source; they are usually repeats but may differ in a detail not shown here. Identical values can stand only once. Like-named read-outs stand apart in the source and are kept apart here. Marks after values point to notes of the source that are not given here.

Columns and labels:
[1] = Single dose plasma pharmacokinetics (4 mg/kg i.p.), NCA; type: in vivo, Sprague-Dawley rats; details: for Cmax / Tmax / AUC(0-t) / half-life: ip; for Cmax / Tmax / CL (systemic clearance), plasma / Half-life t1/2, plasma / AUC 0–12, plasma unbound / AUC 0–72, plasma unbound / Cmax, plasma unbound / AUC(0-t) / half-life: single dose 4 mg/kg i.p.; for Cmax: read-out: Cmax, plasma total; for Tmax: read-out: Tmax, plasma total; for AUC 0–12, plasma unbound / AUC 0–72, plasma unbound / Cmax, plasma unbound: fraction unbound 0.38; for half-life: read-out: Half-life t1/2, plasma (converted)
Protocol: Age-matched (7–9 weeks) adult female (201–225 g; N = 10) and male (301–325 g; N = 10) jugular vein cannulated Sprague-Dawley rats (Charles River Laboratories) were used for this study. The experiments were conducted in strict accordance with the University of Cincinnati Institutional Animal Care and Use Committee (UC IACUC)-approved protocol (Protocol Number: 10-11-01-01) and all the studies were performed as per the highest international standards of animal welfare outlined by the NIH’s Guide for the Care and Use of Laboratory Animals. Upon arrival, animals were housed individually under pathogen-free, temperature and humidity-controlled environment on a 12/12 h light/dark cycle and were given access to standard chow and water ad libitum (ad-lib). To maintain the patency of the jugular vein catheters, they were flushed with normal saline and locked with the heparin-dextrose solution every other day.
Within 10 minutes of collection, plasma was separated by centrifugation of the blood samples at 4,000 rpm for 15 min. Microdialysis samples were collected simultaneously through the probes at the same time points from 0–12 hours.
Letrozole was extracted from the plasma samples using the liquid-liquid extraction technique. Calibration standards were freshly prepared by spiking working letrozole solution into the blank rat plasma to give a concentration curve ranging from 5 to 5000 ng/ml. Briefly, 50 μl of the plasma sample/standard spiked with known letrozole concentration was transferred to a glass tube containing 1 mL of the extraction solvent methyl-tertiary-butyl ether. All the samples were then vortex mixed for 40 sec and centrifuged for 5 min. 800 μl of the supernatant was decanted into a clean test tube and evaporated to dryness using a CentriVap evaporator. The precipitate was reconstituted in 100 μl of the mobile phase and vortex mixed, following which, 50 μl sample volume was injected onto the HPLC system for analysis. The dialysis samples, on the other hand, were injected directly onto HPLC.

[2] = Whole body PBPK model with multi-compartment brain model (Simcyp Animal Simulator V17); parameters: species or system rat
Excerpt: Simcyp Animal Simulator V17 (Certara Inc.) was employed for developing a bottom-up whole body PBPK model incorporating the specified multi-compartment brain model. Based on its anatomy and physiology, the whole brain is described by three compartments, viz. brain blood, brain mass and cerebrospinal fluid (CSF) as illustrated in Fig 1 (Simcyp® Rat Simulator). For model development, the physiological/ system-specific parameters were inferred from the existing rodent species within the animal simulator while, the key drug- specific parameters used are summarized in Table 1. Briefly, all the physiochemical and binding to blood components (plasma proteins and erythrocytes) parameters of letrozole were derived from expansive literature review. The first-order rate of absorption (Ka) and bioavailability following oral administration and systemic clearance values in male and female rats were obtained from a previously reported pharmacokinetic study and the first-order absorption model best fit the letrozole data. Full-PBPK model was employed for drug distribution while the Rodgers and Rowland method or “Method 2”, as defined in Simcyp v17, predicted the volume of distribution (Vss). For the multi-compartment brain model, the passive permeability-surface area product on the BBB (PSB) was determined using the Crone- Renkin Equation [25, 26]: PSB=−Fpfln(1−Kin/Fpf) (3) where, Fpf is the cerebral blood or perfusion flow rate and Kin is the brain uptake clearance. We used 0.036 mL/sec/g as the Fpf for letrozole, based on a previous study that obtained an average cerebral perfusion flow rate value for lipophilic compounds [25]. […] The passive permeability-surface area product on the blood-cerebrospinal fluid barrier (BCSFB), PSC, was assumed as half of the PSB [19, 27] while the passive permeability-surface area product on the cerebrospinal fluid-brain barrier (CSFBB), PSE, was set at 80 mL/min, assuming a high permeability of this barrier. Brain ECF concentrations were predicted using the in vivo unbound fraction in the brain (fu, brain) for letrozole multiplied by the simulated total brain concentrations. The fu, brain for letrozole was experimentally determined in both healthy and tumor-bearing female Sprague-Dawley rats (N = 4/ group). Following single dose intraperitoneal administration of 4 mg/kg letrozole, both brain ECF (representative of unbound drug concentration in the brain) and whole brain tissue samples were collected at the same corresponding timepoint around the Tmax (~6 hrs) of letrozole in brain ECF and the fu, brain was calculated based on the ratio of observed brain ECF to the whole brain tissue homogenate concentrations of letrozole (0.58 ± 0.19; mean ± SD).
For evaluation of model predictions, the PBPK model developed was used to simulate extravascular administration of single/ multiple doses of letrozole (4 mg/kg) in rodents. To evaluate the predictive performance of the PBPK model, we compared the ratio of the predicted exposure change (Cmax and AUC ratios) against the observed data. A 1.25-fold under‐ or over‐prediction was considered good and within 1.5‐fold was deemed reasonable.

[3] = parameters: method as in PMID 17045772; details: rat liver microsomes; cited from earlier work
[4] = Steady state brain ECF pharmacokinetics by intracerebral microdialysis; details: for Kp uu at 264 h / Kp uu / Kp uu at 120 h: intraperitoneal; for Kp uu at 264 h: 11 days; for Kp uu: Kpuu, range over single dose and steady state (Cmax and AUC0-12); for Kp uu at 120 h: 5 days
Protocol: The average in vitro relative recovery of letrozole was determined at a flow rate of 2.0 μ1/min at 35°C.
Microdialysis probes were surgically implanted in jugular vein cannulated rats under anesthesia (ketamine/ xylazine 70/ 6 mg/kg i.p., Henry Schein, NY) one day prior to the experiment. Buprenorphine (Buprenex®, Henry Schein, NY) was administered for perioperative analgesia. The probe was inserted into the striatum with the following tip coordinates: A/P, 1.2 mm, L, 3.1 mm, and D/V −7.8 mm, according to the stereotaxic atlas of Paxinos and Watson [21]. The active portion of the membrane for the probes was 4.5 mm. Following implantation, the probes were connected to an infusion pump set to deliver modified Dulbecco’s phosphate buffered saline containing 1.2 mm CaCl2 and 5 mM glucose at a flow rate of 1 μl/min overnight.
To establish the steady state, letrozole was administered via the intraperitoneal route at a dose of 4mg/kg o.d for 11 days (female rats) and 5 days (male rats) based on the previously published data and our preliminary experiments. On the day of the experiment (last day of dosing), blood and dialysis samples were collected concurrently as described above at the following time points- pre-dose, 1, 2, 4, 6, 8 and12 h post administration. An additional 24 hr time point was included in the plasma sample collection and all the samples were stored at -80°C until analyzed.
Three sets of calibration plots were constructed for method validation.
Non-compartmental analysis (NCA) was performed using Phoenix WinNonlin® software (version 6.2.1, Pharsight, St. Louis, MO, USA) and the PK parameters determined included peak concentration (Cmax), time to reach peak concentration (Tmax), area under the concentration-time curve between time zero to the last observed concentration time point (AUC0- t) and the elimination half-life (t1/2). Actual sampling times were employed for calculations except for the pre-dose times, which were kept as zero. Since the blood sampling period spanned less than 4.5 half-lives in female rats, plasma AUC0-∞ values could not be determined reliably. Consequently, we were constrained to reporting AUC0-t values for letrozole in this study which was calculated using the linear trapezoidal method. For consistency, only AUC0-t values were reported for male rats as well. Cmax and Tmax values were obtained directly from the concentration-time data. […] Brain ECF concentrations were time-averaged over the collection interval and were corrected for the observed relative recovery. The brain-to-plasma unbound partition coefficients (Kpuu) were calculated as a ratio of the Cmax or AUC0-12 of letrozole levels in the brain ECF to corresponding plasma Cmax and AUC values corrected for plasma protein binding.

[5] = Sprague-Dawley, rat, plasma, female rats
[6] = Sprague-Dawley, rat, plasma, male rats
[7] = females, steady state, 4 mg/kg for 11 days
[8] = males, steady state, 4 mg/kg for 5 days

clearance ([1]; Sprague-Dawley, rat, plasma, intraperitoneal, 4 mg/kg, female rats, read-out: clearance observed in this study): ~0.25 mL/min | Cmax [1, 5]: 1200 ng/mL | Tmax [1, 5]: 8.5 h | Cmax [1, 6]: 1060 ng/mL | Tmax [1, 6]: 6.5 h | CL (systemic clearance), plasma ([1]; female rats): 57.4 (13.0)*** ml/h/kg | Half-life t1/2, plasma ([1]; female rats, 4 mg/kg): 34.0 (3.6)*** h | AUC 0–12, plasma unbound ([1]; female rats): 4446 (1160) h.ng/ml | AUC 0–72, plasma unbound ([1]; female rats): 20668 (4980) h.ng/ml | Cmax, plasma unbound ([1]; female rats): 456 (60) ng/ml | AUC(0-t) ([1]; female, Sprague-Dawley, rat, plasma, 4 mg/kg, female rats, read-out: AUC 0–12, plasma total): 11700 ng·h/mL | AUC(0-t) ([1]; female, Sprague-Dawley, rat, plasma, 4 mg/kg, female rats, read-out: AUC 0–72, plasma total): 54400 ng·h/mL | half-life ([1]; female, Sprague-Dawley, rat, plasma, 4 mg/kg, female rats): ~34 h | Half-life t1/2, plasma ([1]; male rats, 4 mg/kg): 9.2 (2.4) h and 9.23 h | AUC 0–12, plasma unbound ([1]; male rats): 4066 (1140) h.ng/ml | AUC 0–72, plasma unbound ([1]; male rats): 9447 (1920) h.ng/ml | Cmax, plasma unbound ([1]; male rats): 403 (136) ng/ml | AUC(0-t) ([1]; male, Sprague-Dawley, rat, plasma, 4 mg/kg, male rats, read-out: AUC 0–12, plasma total): 10700 ng·h/mL | AUC(0-t) ([1]; male, Sprague-Dawley, rat, plasma, 4 mg/kg, male rats, read-out: AUC 0–72, plasma total): 24900 ng·h/mL | half-life ([1]; male, Sprague-Dawley, rat, plasma, 4 mg/kg, male rats): ~9 h | AUC 0–12, brain ECF, predicted/observed ratio ([2]; females, single dose 4 mg/kg): 0.81 | AUC 0–72, plasma, predicted/observed ratio ([2]; females, single dose 4 mg/kg): 0.95 | Cmax, brain ECF, predicted/observed ratio ([2]; females, single dose 4 mg/kg): 0.71 | Cmax, plasma, predicted/observed ratio ([2]; females, single dose 4 mg/kg): 0.90 | Half-life t1/2, plasma, predicted/observed ratio ([2]; females, single dose 4 mg/kg): 1.29 | AUC 0–12, brain ECF, predicted/observed ratio [2, 7]: 0.78 | AUC 0–24, plasma, predicted/observed ratio [2, 7]: 0.77 | Cmax, brain ECF, predicted/observed ratio [2, 7]: 0.66 | Cmax, plasma, predicted/observed ratio [2, 7]: 0.76 | AUC 0–12, brain ECF, predicted/observed ratio ([2]; males, single dose 4 mg/kg): 1.29 | AUC 0–72, plasma, predicted/observed ratio ([2]; males, single dose 4 mg/kg): 0.85 | Cmax, brain ECF, predicted/observed ratio ([2]; males, single dose 4 mg/kg): 1.19 | Cmax, plasma, predicted/observed ratio ([2]; males, single dose 4 mg/kg): 0.75 | Half-life t1/2, plasma, predicted/observed ratio ([2]; males, single dose 4 mg/kg): 1.45 | AUC 0–12, brain ECF, predicted/observed ratio [2, 8]: 1.07 | AUC 0–24, plasma, predicted/observed ratio [2, 8]: 0.87 | Cmax, brain ECF, predicted/observed ratio [2, 8]: 0.96 | Cmax, plasma, predicted/observed ratio [2, 8]: 0.80 | accumulation at steady state (brain ECF Cmax and AUC0-12) ([4]; female rats): 3.5 to 4.0 fold | predicted steady state average concentration, brain ECF ([4]; female rats): ~1,000 ng/ml | Rac brain (observed accumulation ratio, AUC0-12) ([4]; female rats, Day 11 / Day 1): 4.2 | Rac brain (observed accumulation ratio, Cmax) ([4]; female rats, Day 11 / Day 1): 3.5 | Kp uu at 264 h ([4]; female, Sprague-Dawley, rat, brain ECF / unbound plasma, 4 mg/kg, Kpuu (AUC0-12 brain ECF / plasma unbound), female rats, steady state): 1.3 | Kp uu at 264 h ([4]; female, Sprague-Dawley, rat, brain ECF / unbound plasma, 4 mg/kg, Kpuu (Cmax brain ECF / plasma unbound), female rats, steady state): 1.2 | Kp uu ([4]; female, Sprague-Dawley, rat, brain ECF / unbound plasma, 4 mg/kg, female rats): 1.2 to 1.4 | accumulation at steady state (brain ECF Cmax and AUC0-12) ([4]; male rats): 2.0 fold | predicted steady state average concentration, brain ECF ([4]; male rats): ~210 ng/mL | Rac brain (observed accumulation ratio, AUC0-12) ([4]; male rats, Day 5 / Day 1): 2.0 | Rac brain (observed accumulation ratio, Cmax) ([4]; male rats, Day 5 / Day 1): 1.9 | Kp uu at 120 h ([4]; male, Sprague-Dawley, rat, brain ECF (striatal microdialysate) / unbound plasma, 4 mg/kg, Kpuu (AUC0-12 brain ECF / plasma unbound), male rats, steady state): 0.9 | Tmax ([4]; male, Sprague-Dawley, rat, brain ECF (striatal microdialysate), ip, 4 mg/kg): 3.3 h | AUC(0-t) ([4]; male, Sprague-Dawley, rat, brain ECF (striatal microdialysate), ip, 4 mg/kg, AUC 0–12, brain ECF, male rats, steady state, 4 mg/kg i.p. daily for 5 days): 4820 ng·h/mL | AUC(0-t) ([4]; male, Sprague-Dawley, rat, brain ECF (striatal microdialysate), ip, 4 mg/kg, brain ECF AUC 0–12, male rats, steady state, 4 mg/kg i.p. daily for 5 days): 4800 ng·h/mL | Kp uu at 120 h ([4]; male, Sprague-Dawley, rat, brain ECF / unbound plasma, 4 mg/kg, Kpuu (Cmax brain ECF / plasma unbound), male rats, steady state): 0.9 | Kp uu ([4]; male, Sprague-Dawley, rat, brain ECF / unbound plasma, 4 mg/kg, male rats): 0.6 to 0.9 | brain ECF exposure (Cmax, AUC0-12), higher in female rats ([4]; steady state): 4.7 to 5 fold
Compound: N#Cc1ccc(C(c2ccc(C#N)cc2)n2cncn2)cc1 [letrozole]
CL (systemic clearance), plasma ([1]; male rats, 4 mg/kg): 145.9 ± 14.0 ml/h/kg and 146 (14.0) ml/h/kg | overall intrinsic clearance and formation rate of the carbinol metabolite, male versus female rats [3]: about 3.0 fold | Cmax, brain ECF ([4]; male rats, steady state, 4 mg/kg i.p. daily for 5 days, 4 mg/kg): 490 ± 240 ng/ml and 490 (240) ng/ml and 490 ng/ml
